Laboratory results taken from ChEMBL document CHEMBL3421591, “Improved Synthesis of Biotinol-5'-AMP: Implications for Antibacterial Discovery” (ACS Med Chem Lett, 2015).
≈ marks a conversion by molar mass, not a printed value. Calls of active or inactive are those of the source. The calls are words filed in the database; no cut-off is given here.

Tests used:
Assay type in all cases: functional
[1] = system: Mycobacterium tuberculosis; assay: Antimicrobial activity against pyrazinamide-resistant Mycobacterium tuberculosis BCG(SI) after 16 to 20 hrs by two-fold microdilution broth method
[2] = system: Mycobacterium tuberculosis; assay: Antimicrobial activity against isoniazid-resistant Mycobacterium tuberculosis Who-185 after 16 to 20 hrs by two-fold microdilution broth method
[3] = system: Mycobacterium tuberculosis; assay: Antimicrobial activity against rifampicin-resistant Mycobacterium tuberculosis Who-185 after 16 to 20 hrs by two-fold microdilution broth method

Compound	MIC [1]	MIC [2] [µg/mL]	MIC [3] [µg/mL]
Nc1ncnc2c1ncn2[C@@H]1O[C@H](COP(=O)(O)OCCCCC[C@@H]2SC[C@@H]3NC(=O)N[C@@H]32)[C@@H](O)[C@H]1O	inactive	0.5 (≈ 0.894 µM)	2.5 (≈ 4.47 µM)
Nc1ncnc2c1ncn2[C@@H]1O[C@H](CNS(=O)(=O)NC(=O)CCCC[C@@H]2SC[C@@H]3NC(=O)N[C@@H]32)[C@@H](O)[C@H]1O	0.1 µg/mL (≈ 0.175 µM)	0.1 (≈ 0.175 µM)	0.1 (≈ 0.175 µM)
